Experimental findings from patent US20240002391A1, “4-ALKOXYPYRROLO[2,1-F][1,2,4]TRIAZINES AND PREPARATION AND USES THEREOF” (BioSplice Therapeutics, Inc., priority 2022, published 2024) are described below.

Each structure is given as a SMILES string.

The target of the assay is recombinant DYRK1A kinase (Homo sapiens (Human), UniProt Q13627). The experiment in a line: DYRK1A kinase assay (Ser/Thr 18 peptide Z-lyte FRET). In kind it is biochemical. The conditions noted are these: DYRK1A kinase activity, Z-lyte Ser/Thr 18 peptide, 15 μM ATP; method text calls the value IC50; read-out: EC50 (the source's name). The procedure, abridged:
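Recombinant enzyme (0.25 μg/mL final) was incubated with 15 μM ATP, 4 μM Ser/Thr 18 peptide and compound (11-point 1:3 series from 10 μM) for 1 h at room temperature, in duplicate. Development reagent was added for 1 h, and coumarin/fluorescein emission ratio gave % phosphorylation; IC50 by non-linear regression.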
Take `COc1nc(NC23CC(N)(C2)C3)nn2ccc(-c3ccc4nccnc4c3)c12` [Compound 381, N1-(4-Methoxy-5-(quinoxalin-6-yl)pyrrolo[2,1-f][1,2,4]triazin-2-yl)bicyclo[1.1.1]pentane-1,3-diamine]: the IC50 was determined as 2.5 nM.

Take `COc1nc(N[C@H]2CCN(C)C[C@H]2F)nn2ccc(-c3ccc4nc(C)n(CC(F)F)c4c3)c12` [Compound 127, 5-(1-(2,2-Difluoroethyl)-2-methyl-1H-benzo[d]imidazol-6-yl)-N-((3R,4S)-3-fluoro-1-methylpiperidin-4-yl)-4-methoxypyrrolo[2,1-f][1,2,4]triazin-2-amine]: the IC50 was determined as 2.2 nM.

Consider `COc1nc(N[C@@H]2CCNCC2(F)F)nn2ccc(-c3cnc4nccn4c3)c12` [Compound 964, (R)—N-(3,3-Difluoropiperidin-4-yl)-5-(imidazo[1,2-a]pyrimidin-6-yl)-4-methoxypyrrolo[2,1-f][1,2,4]triazin-2-amine], for which the IC50 was found to be 4.3 nM.

For `CCC(=O)N1CC[C@@H](Nc2nc(OC)c3c(-c4ccc5nnn(CC(F)F)c5c4)ccn3n2)[C@@H](F)C1` [Compound 772, 1-((3S,4R)-4-((5-(1-(2,2-Difluoroethyl)-1H-benzo[d][1,2,3]triazol-6-yl)-4-methoxypyrrolo[2,14][1,2,4]triazin-2-yl)amino)-3-fluoropiperidin-1-yl)propan-1-one], the IC50 was determined as 2 nM.

`COc1nc(N[C@H]2CC[C@](C)(O)CC2)nn2ccc(-c3cc4ncccc4[nH]3)c12` [Compound 280, trans-4-((4-Methoxy-5-(1H-pyrrolo[3,2-b]pyridin-2-yl)pyrrolo[2,1-f][1,2,4]triazin-2-yl)amino)-1-methylcyclohexan-1-ol]: the IC50 came to 33.4 nM.

Regarding `COc1nc(N[C@H]2CC[C@@H](OC)CC2)nn2ccc(-c3ccc4nccn4c3)c12` [Compound 45, 5-(Imidazo[1,2-a]pyridin-6-yl)-4-methoxy-N-(cis-4-methoxycyclohexyl)pyrrolo[2,1-f][1,2,4]triazin-2-amine], the IC50 was 9.3 nM.

Take `COc1nc(NC2CCC3(CC2)CN(C(C)=O)C3)nn2ccc(-c3cnc4nccn4c3)c12` [Compound 273, 1-(7-((5-(Imidazo[1,2-a]pyrimidin-6-yl)-4-methoxypyrrolo[2,1-f][1,2,4]triazin-2-yl)amino)-2-azaspiro[3.5]nonan-2-yl)ethan-1-one]: the IC50 is 1.8 nM.

Turning to `COc1nc(N[C@@H]2CCN(C3COC3)CC2(F)F)nn2ccc(-c3cc(F)c4nc(C)n(C(C)C)c4c3)c12` [Compound 551, (R)—N-(3,3-Difluoro-1-(oxetan-3-yl)piperidin-4-yl)-5-(4-fluoro-1-isopropyl-2-methyl-1H-benzo[d]imidazol-6-yl)-4-methoxypyrrolo[2,1-f][1,2,4]triazin-2-amine], the IC50 was 1.6 nM.

In the case of `COc1nc(N[C@H]2CC[C@@H](O)CC2)nn2ccc(-c3ccc4nnn(CC(F)F)c4c3)c12` [Compound 718, cis-4-((5-(1-(2,2-Difluoroethyl)-1H-benzo[d][1,2,3]triazol-6-yl)-4-methoxypyrrolo[2,1-f][1,2,4]triazin-2-yl)amino)cyclohexan-1-ol], the IC50 was determined as 0.5 nM.

As to `COc1nc(NC2CCOCC2)nn2ccc(-c3ccc4nccnc4c3)c12` [Compound 366, 4-Methoxy-5-(quinoxalin-6-yl)-N-(tetrahydro-2H-pyran-4-yl)pyrrolo[2,1-f][1,2,4]triazin-2-amine], the IC50 was 2.5 nM.

Regarding `COc1nc(N[C@H](C)c2ccccc2)nn2ccc(-c3cnc4nccn4c3)c12` [Compound 233, (R)-5-(Imidazo[1,2-a]pyrimidin-6-yl)-4-methoxy-N-(1-phenylethyl)pyrrolo[2,1-f][1,2,4]triazin-2-amine], the IC50 worked out at 6.8 nM.

Regarding `COc1nc(N[C@@H]2CCN(C)C[C@@H]2F)nn2ccc(-c3ccc4nccn4c3)c12` [Compound 67, N-((3S,4R)-3-Fluoro-1-methylpiperidin-4-yl)-5-(imidazo[1,2-a]pyridin-6-yl)-4-methoxypyrrolo[2,1-f][1,2,4]triazin-2-amine], the IC50 turned out to be 5.6 nM.

Regarding `COc1nc(NC2CCC(F)(F)CC2)nn2ccc(-c3ccc4ncnn4c3)c12` [Compound 193, 5-([1,2,4]Triazolo[1,5-a]pyridin-6-yl)-N-(4,4-difluorocyclohexyl)-4-methoxypyrrolo[2,1-f][1,2,4]triazin-2-amine], the IC50 was 19.9 nM.

`COc1nc(N[C@H]2CCN(CCF)C[C@H]2F)nn2ccc(-c3ccc4nccnc4c3)c12` [Compound 372, N-((3R,4S)-3-Fluoro-1-(2-fluoroethyl)piperidin-4-yl)-4-methoxy-5-(quinoxalin-6-yl)pyrrolo[2,1-f][1,2,4]triazin-2-amine]: the IC50 came out at 4.1 nM.

With `COc1nc(N[C@@H]2CCN(C(C)=O)CC2(F)F)nn2ccc(-c3ccc4ncccc4c3)c12` [Compound 1048, (R)-1-(3,3-Difluoro-4-((4-methoxy-5-(quinolin-6-yl)pyrrolo[2,1-f][1,2,4]triazin-2-yl)amino)piperidin-1-yl)ethan-1-one], the IC50 was determined as 1.3 nM.

`COc1nc(N[C@H]2C[C@](C)(NC(C)=O)C2)nn2ccc(-c3ccc4nccnc4c3)c12` [Compound 334, N-(trans-3-((4-Methoxy-5-(quinoxalin-6-yl)pyrrolo[2,1-f][1,2,4]triazin-2-yl)amino)-1-methylcyclobutyl)acetamide]: the IC50 is 0.9 nM.

As for `COc1nc(N[C@H]2CC[C@](C)(O)CC2)nn2ccc(-c3cc(F)c4nc(C)n(CC(F)F)c4c3)c12` [Compound 151, trans-4-((5-(1-(2,2-difluoroethyl)-4-fluoro-2-methyl-1H-benzo[d]imidazol-6-yl)-4-methoxypyrrolo[2,1-f][1,2,4]triazin-2-yl)amino)-1-methylcyclohexan-1-ol], the IC50 stood at 1.7 nM.

Consider `COc1nc(N[C@H]2C[C@@](C)(NC(C)=O)C2)nn2ccc(-c3ccc4nnn(CC(F)F)c4c3)c12` [Compound 702, N-((1s,3s)-3-((5-(1-(2,2-Difluoroethyl)-1H-benzo[d][1,2,3]triazol-6-yl)-4-methoxypyrrolo[2,1-f][1,2,4]triazin-2-yl)amino)-1-methylcyclobutyl)acetamide], for which the IC50 worked out at 1.2 nM.

In the case of `COc1nc(N[C@@H](C)C2COC2)nn2ccc(-c3cnc4nccn4c3)c12` [Compound 928, (S)-5-(Imidazo[1,2-a]pyrimidin-6-yl)-4-methoxy-N-(1-(oxetan-3-yl)ethyl)pyrrolo[2,1-f][1,2,4]triazin-2-amine], the IC50 is 2 nM.

With `COc1nc(N[C@H]2C[C@@](C)(NC(C)=O)C2)nn2ccc(-c3ccn4nccc4c3)c12` [Compound 97, N-(cis-3-((4-Methoxy-5-(pyrazolo[1,5-a]pyridin-5-yl)pyrrolo[2,1-f][1,2,4]triazin-2-yl)amino)-1-methylcyclobutyl)acetamide], the IC50 stood at 1.1 nM.

`COc1nc(N[C@H]2CCN(C)C[C@H]2F)nn2ccc(-c3ccc4nccnc4c3)c12` [Compound 368, N-((3R,4S)-3-Fluoro-1-methylpiperidin-4-yl)-4-methoxy-5-(quinoxalin-6-yl)pyrrolo[2,1-f][1,2,4]triazin-2-amine]: the IC50 amounted to 4 nM.

As for `COc1nc(N[C@H]2C[C@@](C)(NC(C)=O)C2)nn2cc(F)c(-c3ccc4ncccc4c3)c12` [Compound 1052, N-(cis-3-((6-Fluoro-4-methoxy-5-(quinolin-6-yl)pyrrolo[2,1-f][1,2,4]triazin-2-yl)amino)-1-methylcyclobutyl)acetamide], the IC50 amounted to 4.5 nM.

For `COc1nc(N[C@@H]2CCN(C3COC3)CC2(F)F)nn2ccc(-c3ccc4nnn(CC(F)F)c4c3)c12` [Compound 785, (R)—N-(3,3-Difluoro-1-(oxetan-3-yl)piperidin-4-yl)-5-(1-(2,2-difluoroethyl)-1H-benzo[d][1,2,3]triazol-6-yl)-4-methoxypyrrolo[2,1-f][1,2,4]triazin-2-amine], the IC50 was 0.5 nM.

For the compound `COc1nc(N[C@H]2CC[C@](C)(O)CC2)nn2ccc(-c3ccc4nncn4c3)c12` [Compound 187, trans-4-((5-([1,2,4]Triazolo[4,3-a]pyridin-6-yl)-4-methoxypyrrolo[2,1-f][1,2,4]triazin-2-yl)amino)-1-methylcyclohexan-1-ol], the IC50 was 100 nM.

For `COc1nc(NC2CCN(C3COC3)CC2)nn2ccc(-c3ccn4nccc4c3)c12` [Compound 26, 4-Methoxy-N-(1-(oxetan-3-yl)piperidin-4-yl)-5-(pyrazolo[1,5-a]pyridin-5-yl)pyrrolo[2,1-f][1,2,4]triazin-2-amine], the IC50 was 7.1 nM.

With `COc1nc(N[C@@H]2CCN(C)C[C@@H]2F)nn2ccc(-c3ccc4nccnc4c3)c12` [Compound 367, N-((3S,4R)-3-Fluoro-1-methylpiperidin-4-yl)-4-methoxy-5-(quinoxalin-6-yl)pyrrolo[2,1-f][1,2,4]triazin-2-amine], the IC50 came out at 3.3 nM.

Take `COc1nc(N[C@H]2CC[C@@](C)(O)CC2)nn2ccc(-c3ccn4nccc4c3)c12` [Compound 19, cis-4-((4-Methoxy-5-(pyrazolo[1,5-a]pyridin-5-yl)pyrrolo[2,1-f][1,2,4]triazin-2-yl)amino)-1-methylcyclohexan-1-ol]: the IC50 was 14.1 nM.

Consider `COc1nc(N[C@@H]2CCN(C3COC3)C[C@@H]2F)nn2ccc(-c3ccc4nccnc4c3)c12` [Compound 373, N-((3S,4R)-3-Fluoro-1-(oxetan-3-yl)piperidin-4-yl)-4-methoxy-5-(quinoxalin-6-yl)pyrrolo[2,1-f][1,2,4]triazin-2-amine], for which the IC50 was 2.9 nM.

Turning to `COc1nc(NC2CCN(CC(F)(F)F)CC2)nn2ccc(-c3ccc4ncccc4c3)c12` [Compound 305, 4-Methoxy-5-(quinolin-6-yl)-N-(1-(2,2,2-trifluoroethyl)piperidin-4-yl)pyrrolo[2,1-f][1,2,4]triazin-2-amine], the IC50 stood at 80.7 nM.
